Data on three compounds can be found in patent US9207296B2, “Methods and apparatus for pasadena hyperpolarization” (Huntington Medical Research Institutes, priority 2008, dated 2015).

The nature of series [1]: T1 decay of hyperpolarization (small angle FID series). The format is physicochemical.
The conditions of series [2]: for 13C signal enhancement (nascent): at 4.7 T, relative to thermal polarization; for 13C polarization achieved (maximal): best value after calibration. The protocol:
A number of strategies have been employed to quantify the extent of hyperpolarization [Association N.E.M. Determination of signal-to-noise ratio (SNR) in diagnostic magnetic resonance imaging. NEMA Standards, Publication MS 1-2001 (2001)]. In the present application, the following convention was applied. The signal enhancement (ηobserved) achieved by hyperpolarization was quantified in respect to the signal of a thermally polarized sample (100% ethanol, 188 mM of natural abundance ^13C at each site (Eq. 7)). The signal intensities were determined by numerical integration (xWINNMR software, Bruker Biospin, Germany)
[formula] (where IHP, Iref, CHP and Cref are integral intensities and molar concentrations of hyperpolarized and reference samples, respectively).
The decay of ^13C polarization caused by longitudinal relaxation (T1) of the hyperpolarized sample during the delivery to the detection system was determined (FIG. 15). This allows for the determination of the nascent signal enhancement (Eq. 8), and nascent level of achieved polarization (Eq. 9).
Unless otherwise indicated, PHP^t=0 and η^t=0 are reported in the work presented, using a ^13C polarization of PBoltzmann=0.00041% or 4.1 ppm at 298K and 4.7 T. T1 values for the […] reagent concerned in calibration and quality assurance (“QA”) were determined directly. A series of small angle (α≈8°) FID experiments was employed to probe the decay of the magnetization of the hyperpolarized agents (small excitation angle approximation, SEA). The T1 values were extracted by the fit of Equation 10 (Eq. 10) to the data points, taking into account the loss of magnetization caused by the excitation pulses.
Delivering hyperpolarized sample and triggered detection in the NMR scanner were further optimized. The polarizer was moved to the in vivo suite, where it was positioned carefully 7.63 m+0.5 cm from a small-animal horizontal bore, high field MRI (4.7T Bruker MRI scanner). An automated system was implemented, whereby the hyperpolarized solution was driven by remaining gas pressure in the reactor, through polyethelene (PE) tubing from the polarizer to an NMR-tube in a dual-tuned ^1H/^13C solenoid coil in the MR scanner; where after a precise interval (33 seconds) acquisition was triggered. The solution was then drained to permit successive experiments without coil repositioning.
Peak amplitude was quantified by comparison with the spectrum of ethanol (FIG. 16), using the equations described herein.

In series [3] the test system is rat brain. Particulars: rapid ante-grade injection into common carotid artery, 1 mL, overlaid on 1H MRI.
Series [4] is described as follows: 13C spin storage followed by refocused INEPT polarization transfer to 1H. Particulars: for initial 13C polarization: 2.4 mL sample, polarizer at 1.76 mT; for T1 during 13C spin storage: FIG. 20 samples, […] succinate / 2.9 mM TFPP; for 13C polarization after storage: after 70 s (succinate) or 24 s (TFPP), 12° excitation pulse; for 13C polarization after storage / net 1H NMR signal enhancement / final 13C signal enhancement: 4.7 T; for net 1H NMR signal enhancement: after refocused INEPT; for final 13C signal enhancement: after storage; for increase of overall sensitivity by proton detection: factor versus hyperpolarized 13C detection; for polarization transfer efficiency 13C to 1H: refocused INEPT. The format is physicochemical. The text has this: Specifically, the present subject matter hyperpolarized the ^13C site of two well studied molecules, 1-^13C-succinate-d2 and 2,2,3,3-tetrafluoropropyl 1-^13C-propionate-d3 (TFPP), by […].
Hyperpolarization was then kept on ^13C for 70 s. During this time, the polarized sample was transferred from a low magnetic field polarizer operating at 1.76 mT to 4.7 T animal MR scanner. […] Then the refocused INEPT pulse sequence^10 with τINEPT=34 ms and τrefocus=32 ms (FIG. 19) was used to transfer polarization from ^13C to protons within 1-^13C-succinate-d2 (FIG. 20A and FIG. 20B). […] The delays of the refocused INEPT were τINEPT=20 ms and τrefocus=16 ms.

Structures are written as SMILES. Where “and” joins values, the source holds several entries; their conditions need not be identical. Identical values can stand only once. Like-named read-outs stand apart in the source and are kept apart here.

Consider `O=C(O)CCC(=O)O` [1-^13C-SUCC-d2,3, 1-^13C-succinate-d2,3], for which the “T1 of hyperpolarized 13C signal in D2O” value in series [1] (D2O, pH 3, B0=4.7 T, N=4) was found to be 40 ± 2 s. In addition, in series [1] (H2O, pH 3, B0=4.7 T, N=3, 1-3 mM SUC, 2.5 mM catalyst), the “T1 of hyperpolarized 13C signal in H2O” value turned out to be 27 ± 3 s. In addition, the “T1 when buffered to physiological pH” value in series [1] (buffered to pH 7 immediately before detection, preliminary) is reported as roughly 50 s. In series [2] (1.65-2.89 mM in water, 0.96-2.93 mM in D2O), the “effect of concentration on level of hyperpolarization” value was “No effect”. In addition, the “13C signal enhancement at the point of measurement” value in series [2] (4.7 T, 33 s after production) was 15,900 fold. In addition, in series [2] (16 experiments, in H2O before B1 calibration as printed), the “PHP^t=0 average nascent polarization, stated in H2O” value is given as 15.3 ±1.9%. Also, in series [2] (H2O, mean delay 33 s), the “polarization at the point of measurement in water” value stood at 5.4 ±1.3%. Further, the “13C signal enhancement (nascent)” value in series [2] was 49,000 fold and 37,400 ±4,600 fold. In series [2] (listed as 13C succinate), the “13C signal enhancement (nascent)” value is on record as 47,000 fold and the “13C polarization achieved (maximal)” value stood at 19%. Besides, the “13C polarization achieved (maximal)” value in series [2] (listed as 1-^13C succinate) stood at 18%. Further, the “distribution of 13C image signal in vivo” value in series [3] is “appeared in the anatomical distribution coincident with the rat brain”. Moreover, in series [4], the “initial 13C polarization” value is 10.7%, the “T1 during 13C spin storage” value came to 105 s, the “13C polarization after storage” value was found to be 5.5% and the “net 1H NMR signal enhancement” value is 1,350 fold. In addition, in series [4], the “final 13C signal enhancement” value is on record as 13,500 fold, the “increase of overall sensitivity by proton detection” value amounted to 6.5 and the “polarization transfer efficiency 13C to 1H” value was 41%.

For the compound `CC[13C](=O)OCCO` [HEP, reference compound], the “T1 decay time in D2O” value in series [1] (D2O, pH 7, B0=4.7 T) amounted to 70 s. Moreover, in series [1] (H2O, pH 7, B0=4.7 T), the “T1 decay time in H2O” value is given as 50 s.

With `[2H]C([2H])C([2H])[13C](=O)OCC(F)(F)C(F)F` (stereo not shown) [TFPP, 2,2,3,3-tetrafluoropropyl 1-^13C-propionate-d3], in series [4], the “initial 13C polarization” value amounted to 14%, the “T1 during 13C spin storage” value amounted to 67 s, the “13C polarization after storage” value came to 9.5% and the “net 1H NMR signal enhancement” value is 2,930 fold. Also, in series [4], the “final 13C signal enhancement” value is 23,300 fold; the “increase of overall sensitivity by proton detection” value was determined as 7.9; the “polarization transfer efficiency 13C to 1H” value is 50% and 51%.
